{"source": "paper PMC3208381", "about": "(European journal of medicinal chemistry, 2011)", "molecular_target": "HCV NS5B polymerase (NS5BCΔ21) (Hepatitis C virus genotype 1b, UniProt P26663)", "test": "NS5B inhibition assay", "assay_type": "biochemical", "conditions": "for fold more active than 15a: NS5B IC50 compared with compound 15a; for fold enhancement of inhibitory activity relative to 5-methyl analog 6a: NS5B IC50 compared with compound 6a; for fold decrease in activity relative to thiophene parent compound 5a: NS5B IC50 compared with compound 5a"}
{"smiles": "O=C(O)/C(O)=C/C(=O)c1ccccc1F", "note": "[Compound 17a, 4-(2-Fluorophenyl)-2-hydroxy-4-oxobut-2-enoic acid]", "values": [{"measurement": "fold more active than 15a", "result": "~ 2 fold"}]}
{"smiles": "Cc1ccsc1C(=O)/C=C(\\O)C(=O)O", "note": "[Compound 11a, 2-Hydroxy-4-(3-methylthiophen-2-yl)-4-oxobut-2-enoic acid]", "values": [{"measurement": "fold enhancement of inhibitory activity relative to 5-methyl analog 6a", "result": "~ 7 fold"}]}
{"smiles": "O=C(O)/C(O)=C/C(=O)c1ccc(Cl)s1", "note": "[Compound 7a, 2-Hydroxy-4-(5-chlorothiophene-2-yl)-4-oxobut-2-enoic acid]", "values": [{"measurement": "fold enhancement of inhibitory activity relative to 5-methyl analog 6a", "result": "~ 2 fold"}]}
{"smiles": "O=C(O)/C(O)=C/C(=O)c1ccc(Br)s1", "note": "[Compound 8a, 4-(5-Bromothiophen-2-yl)-2-hydroxy-4-oxobut-2-enoic acid]", "values": [{"measurement": "fold enhancement of inhibitory activity relative to 5-methyl analog 6a", "result": "~ 2 fold"}]}
{"smiles": "Cc1csc(C(=O)/C=C(\\O)C(=O)O)c1", "note": "[Compound 10a, 2-Hydroxy-4-(4-methylthiophen-2-yl)-4-oxobut-2-enoic acid]", "values": [{"measurement": "fold enhancement of inhibitory activity relative to 5-methyl analog 6a", "result": "~ 2 fold"}]}
{"smiles": "O=C(O)/C(O)=C/C(=O)c1nccs1", "note": "[Compound 12a, 2-Hydroxy-4-(4-thiazole-2-yl)-4-oxobut-2-enoic acid]", "values": [{"measurement": "fold decrease in activity relative to thiophene parent compound 5a", "result": "~ 1.8 fold"}]}
{"smiles": "O=C(O)/C(O)=C/C(=O)c1cccs1", "note": "[Compound 5a, 2-Hydroxy-4-(thiophen-2-yl)-4-oxobut-2-enoic acid]", "values": [{"measurement": "fold increase in inhibitory activity over compound 4a", "setting": "NS5B IC50 compared with compound 4a", "result": "~ 2.2 fold"}]}
{"smiles": "O=C(O)/C(O)=C/C(=O)c1cc2cc(Br)ccc2o1", "note": "[Compound 3a, 4-(5-Bromobenzofuran-2-yl)-2-hydroxy-4-oxobut-2-enoic acid]", "values": [{"measurement": "fold improvement in inhibitory activity over compound 2a", "setting": "NS5B IC50 compared with compound 2a", "result": "~ 3.5 fold"}]}
{"smiles": "Cc1ccc(C(=O)/C=C(\\O)C(=O)O)s1", "note": "[Compound 6a, 2-Hydroxy-4-(5-methylthiophen-2-yl)-4-oxobut-2-enoic acid]", "values": [{"measurement": "fold decrease in activity relative to thiophene parent compound 5a", "result": "approximately 3 fold"}]}
{"smiles": "O=C(O)/C(O)=C/C(=O)c1ccccc1[N+](=O)[O-]", "note": "[Compound 16a, 2-Hydroxy-4-(2-nitrophenyl)-4-oxobut-2-enoic acid]", "values": [{"measurement": "fold more active than 15a", "result": "~ 2 fold"}]}
